In patent publication US9856225B2, “Substituted phenazines as antimicrobial agents” (University of Florida Research Foundation, Incorporated, priority 2013, dated 2018):
Values joined by “and” are separate entries in the source; they are usually repeats but may differ in a detail not shown here. Equal values may be shown once. Read-outs that look alike come from different tables or passages of the source.

How the values were obtained:
Type in all cases: cell-based
[1] = tested on: Staphylococcus epidermidis (ATCC 12228); assay: MIC broth microdilution (CLSI), Luria Broth
Description: (§1) Antibiotic Susceptibility Tests (MIC Assay Protocol). The minimum inhibitory concentration (MIC) for each compound described herein was determined by the broth microdilution method as recommended by the Clinical and Laboratory Standards Institute (CLSI) (Clinical and Laboratory Standards Institute. 2009. Methods for dilution antimicrobial susceptibility tests for bacteria that grow aerobically; approved standard, eighth edition (M7-A8)). In a 96-well plate, eleven two-fold serial dilutions of each compound were made in a final volume of 100 μL Luria Broth (one column served as a blank; see the MIC assay described herein). Each well was inoculated with 10^5 bacterial cells at the initial time of incubation, prepared from a fresh log phase culture (OD600 of 0.5). […] The concentration range tested for each compound during this study was 0.10 to 100 μM. DMSO served as the vehicle and negative control in each microdilution MIC assay. DMSO was serially diluted at the same concentration as the compounds with a top concentration of 1% v/v. Bacterial strains used: Staphylococcus aureus (ATCC 25923), Staphylococcus epidermidis (ATCC 12228) and Pseudomonas aeruginosa (PAO1). Kanamycin was used as a positive control against Staphylococcus aureus and Staphylococcus epidermidis.

[2] = tested on: Pseudomonas aeruginosa (PAO1); assay: MIC broth microdilution (CLSI), Luria Broth
Description: as §1

[3] = tested on: Staphylococcus aureus (ATCC 25923); assay: MIC broth microdilution (CLSI), Luria Broth; settings: Staphylococcus aureus
Description: as §1

[4] = tested on: Acinetobacter baumannii (ATCC 19606); assay: Planktonic growth (OD600) in biofilm inhibition assay; settings: for inhibition of growth at 100 µM: Acinetobacter baumannii, ATCC19606, 24 h, A. baumannii ATCC 19606, * = no growth inhibition at 200 μM, read-out: % Growth Inhibition at 100 μM
Description: Each well was inoculated with ˜7×10^6 colony forming units per milliliter (corresponding to an OD600 of 0.01 prepared directly from an overnight culture). A lid was placed on the 96-well plate which was wrapped in suran wrap, placed in a humidifying chamber and incubated under static conditions at 37° C. for 24 hours. Following incubation, the media and planktonic bacteria were then removed from 96-well plates and the wells were then washed with water. The bacterial biofilms within the microtiter wells were stained with 200 μL of an aqueous 0.1% crystal violet solution that was allowed to stand for 10-20 minutes. The crystal violet stain was then removed, the wells were rinsed with water and dried. The crystal violet stain that remained on the inside of the wells (i.e., stained bacterial biofilm) on the inside of the wells was solubilized by the addition of 200 μL ethanol and absorbance was read at OD540 using a spectrophotometer. […] Single data points for all compounds and DMSO controls were tested in two replicate rows in 96-well plates and corresponding absorbance readings were averaged for the quantification of planktonic growth and biofilm formation. Reported percent biofilm inhibition was determined by the comparison of compound treated wells (the average of the two replicate wells) versus vehicle control wells without compound following background subtraction (i.e., an empty, untreated well) and reported from 2 to 4 independent overnight cultures. DMSO was serially diluted at the same concentration as test compounds with a top concentration of 1% v/v.
(§2) The bromophenazines were also evaluated against the Gram-negative bacterium Acinetobacter baumannii in order to identify biofilm modulating small molecules against this emerging pathogen. Acinetobacter baumannii is notorious for its ability to persist as bacterial biofilms on hospital surfaces, giving rise to many multidrug-resistant nosocomial infections. Clinical isolates of A. baumannii have been identified that are resistant to every class of antibiotic clinically used. The bromophenazines were evaluated against Acinetobacter baumannii ATCC 19606 in biofilm inhibition assays. Bromophenazines were allowed to incubate in 96-well plates with Acinetobacter baumannii (˜7×10^6 CFUmL^−1 by adjusting an overnight culture to an OD600˜0.01) for 24 hours at 37° C. using Mueller-Hinton broth followed by spectrophometer readings of each plate to evaluate planktonic growth (OD600) and biofilm formation (OD540 after crystal violet stain of biofilms inside microtiter wells). […] This biofilm inhibition with activation of planktonic growth activity was dose-dependent with bromophenazine 17a (see FIG. 20).

[5] = tested on: Acinetobacter baumannii (ATCC 19606) biofilm; assay: Biofilm inhibition, Mueller-Hinton broth, crystal violet; settings: Acinetobacter baumannii, ATCC19606; A. baumannii ATCC 19606; 100 μM; read-out: % Biofilm Inhibition at 100 μM
Description: Biofilm Inhibition Protocol for A. baumannii (ATCC 19606): In a 96-well plate, ten two-fold serial dilutions of each compound tested were made from the highest concentration tested (100 μM) in a final volume of 100 μL in Mueller-Hinton broth (one column served as a blank). Each well was inoculated with ˜7×10^6 colony forming units per milliliter (corresponding to an OD600 of 0.01 prepared directly from an overnight culture). A lid was placed on the 96-well plate which was wrapped in suran wrap, placed in a humidifying chamber and incubated under static conditions at 37° C. for 24 hours. Following incubation, the media and planktonic bacteria were then removed from 96-well plates and the wells were then washed with water. The bacterial biofilms within the microtiter wells were stained with 200 μL of an aqueous 0.1% crystal violet solution that was allowed to stand for 10-20 minutes. The crystal violet stain was then removed, the wells were rinsed with water and dried. The crystal violet stain that remained on the inside of the wells (i.e., stained bacterial biofilm) on the inside of the wells was solubilized by the addition of 200 μL ethanol and absorbance was read at OD540 using a spectrophotometer. NOTE: The concentration range tested for each compound was 0.2-100 μM. Single data points for all compounds and DMSO controls were tested in two replicate rows in 96-well plates and corresponding absorbance readings were averaged for the quantification of planktonic growth and biofilm formation. Reported percent biofilm inhibition was determined by the comparison of compound treated wells (the average of the two replicate wells) versus vehicle control wells without compound following background subtraction (i.e., an empty, untreated well) and reported from 2 to 4 independent overnight cultures. DMSO was serially diluted at the same concentration as test compounds with a top concentration of 1% v/v.
as §2

[6] = tested on: Staphylococcus aureus (ATCC 25923) biofilm; assay: Biofilm inhibition, crystal violet staining; parameters: MIC/IC50 Biofilm: unit not given here; settings: S. aureus ATCC 25923; for Phenotype: planktonic growth vs biofilm formation; for IC50: Staphylococcus aureus, ATCC25923, single replicate screen, read-out: Biofilm Inhibition IC50; for MIC/IC50 Biofilm: ratio of MIC to IC50 of biofilm inhibition
Description: Biofilm Inhibition Protocol for S. aureus (ATCC 25923). A serial two-fold dilution of 2× bromophenazine small molecule concentration was made in 100 μL tryptic soy broth (TSB) medium with 0.5% glucose were delivered into 0.1% gelatin (Millipore) coated 96-well tissue culture plates. […] To each well, 100 μL of TSB with 0.5% glucose containing 2×10^6 CFU/mL Staphylococcus aureus cells, prepared from fresh culture (OD600 of 0.8), was added. The plates were incubated at 37° C. for 24 hours. The wells were gently rinsed by submerging the entire plates in a tub of cold, running tap water. The wells were then fixed with 200 μL methanol for 15 minutes. After the plates were air dried, the biofilms were stained with 100 μL of 1% crystal violet for 10 minutes. The plates were again rinsed with running water. After drying in air, quantitative assessment of biofilm formation was obtained by extracting the crystal violet associated with the remaining biofilm with 100 μL per well of the following bleaching solution (methanol:glacial acetic acid:water (v/v/v)=4:1:5). This bleaching solution dissolved the bound crystal violet and produced a violet-colored solution in each well. The intensity of coloration was determined by measuring the absorbance at 540 nm.

[7] = ATCC12228, Table 1, ATCC 12228, read-out: Staphylococcus epidermidis MIC
[8] = Table 1, PAO1, read-out: Pseudomonas aeruginosa MIC
[9] = ATCC25923, Table 1, ATCC 25923, range tested 0.10 to 100 μM, read-out: Staphylococcus aureus MIC
[10] = ATCC25923, Table 1, ATCC 25923, read-out: Staphylococcus aureus MIC
[11] = ATCC25923, Table 2, S. aureus ATCC 25923, Luria Broth, read-out: MIC

SMILES | MIC [1, 7] | MIC [2, 8] | MIC [3, 9] | MIC [3, 10] | other results
Oc1cccc2nc3ccccc3nc12 [Compound 2, 1-Hydroxyphenazine, reference compound] |  |  |  |  | MIC ([1]; ATCC12228, read-out: Staphylococcus epidermidis MIC): > 100 µM and > 19.7 µg/mL; MIC ([2]; PAO1, read-out: Pseudomonas aeruginosa MIC): > 100 µM; MIC ([3]; ATCC25923, read-out: Staphylococcus aureus MIC): > 100 µM and > 19.7 µg/mL
O=C(O)c1cccc2nc3ccccc3nc12 [Compound 3, Phenazine-1-carboxylic acid, reference compound] | > 100 µM and > 22.5 µg/mL | > 100 µM | > 100 µM | > 22.5 µg/mL | 
NC(=O)c1cccc2nc3ccccc3nc12 [Compound 4, Phenazine-1-carboxamide, reference compound] | > 100 µM and > 22.4 µg/mL | > 100 µM | > 100 µM | > 22.4 µg/mL | 
Oc1c(Br)ccc2nc3ccccc3nc12 [Compound 5, 2-Bromophenazin-1-ol, reference compound] | 6.25 µM and 1.72 µg/mL | > 100 µM | 6.25 µM | 1.72 µg/mL | 
Nc1cccc2nc3ccccc3nc12 [Compound 6, Phenazin-1-amine] | > 100 µM and > 19.6 µg/mL | > 100 µM | > 100 µM | > 19.6 µg/mL | 
O=C(O)c1cccc2c1nc1ccccc1[n+]2[O-] [Compound 7, 1-Carboxyphenazine 5-oxide] | > 100 µM and > 24.1 µg/mL | > 100 µM | > 100 µM | > 24.1 µg/mL | 
COc1ccc2nc3c(C(=O)O)cccc3nc2c1 [Compound 8, 7-Methoxyphenazine-1-carboxylic acid] | > 100 µM and > 25.5 µg/mL | > 100 µM | > 100 µM | > 25.5 µg/mL | 
O=C(O)c1cccc2nc3cc(Br)ccc3nc12 [Compound 9, 7-Bromophenazine-1-carboxylic acid] | 100 µM and 30.3 µg/mL | > 100 µM | 100 µM | 30.3 µg/mL | 
Nc1c(Br)cc(Br)c2nc3ccccc3nc12 [Compound 17, 2,4-Dibromophenazin-1-amine] |  | > 100 µM | > 100 µM | > 35.4 µg/mL | 

The next lines start with results.

MIC [1, 7] | MIC [2, 8] | MIC [3, 9] | MIC [3, 10] | SMILES | other results
50 µM and 13 µg/mL | > 100 µM | 50 µM | 13 µg/mL | O=C(O)c1cccc2nc3cccc(Cl)c3nc12 [Compound 10, 9-Chlorophenazine-1-carboxylic acid] | 
> 100 µM and > 31.5 µg/mL | > 100 µM | > 100 µM | > 31.5 µg/mL | COc1cc2nc3c(C(=O)O)cccc3nc2c(OC)c1OC [Compound 12, 6,7,8-Trimethoxyphenazine-1-carboxylic acid] | 
> 100 µM and > 25.3 µg/mL | > 100 µM | > 100 µM | > 25.3 µg/mL | CCc1ccc2nc3c(C(=O)O)cccc3nc2c1 [Compound 13, 7-Ethylphenazine-1-carboxylic acid] | 
 | > 100 µM | > 100 µM | > 27.4 µg/mL | Nc1cccc2nc3cc(Br)ccc3nc12 [Compound 14, 7-Bromophenazin-1-amine] | 
 | > 100 µM | > 100 µM | > 30.2 µg/mL | NC(=O)c1cccc2nc3cc(Br)ccc3nc12 [Compound 15, 7-Bromophenazine-1-carboxamide] | 
 | > 100 µM | > 100 µM | > 43.2 µg/mL | Nc1c(Br)cc(Br)c2nc3cc(Br)ccc3nc12 [Compound 16, 2,4,7-Tribromophenazin-1-amine] | 
 | > 100 µM | > 100 µM | > 28.9 µg/mL | COc1ccc(Br)c2nc3ccccc3nc12 [Compound 19, 1-Bromo-4-methoxyphenazine] | 
 | > 100 µM | > 100 µM | > 27.5 µg/mL | Oc1ccc(Br)c2nc3ccccc3nc12 [Compound 20, 4-Bromophenazin-1-ol] | 
1.56 µM and 0.66 µg/mL |  | 1.56 µM | 0.66 µg/mL | CC(C)C(=O)Oc1c(Br)cc(Br)c2nc3ccccc3nc12 [Compound 22, 2,4-Dibromophenazin-1-yl isobutyrate] | inhibition of growth at 100 µM ([4]; 100 μM): -13 ± 5%; MIC [3, 11]: 1.56 µM; inhibition at 100 µM [5]: 26 ± 12%; Phenotype [6]: antibacterial; IC50 [6]: 990 nM; MIC/IC50 Biofilm [6]: 1.6
3.13 µM and 1.68 µg/mL |  | 3.13 µM | 1.68 µg/mL | O=C(Oc1c(Br)cc(Br)c2nc3ccccc3nc12)c1cccc(Br)c1 [Compound 25, 2,4-Dibromophenazin-1-yl 3-bromobenzoate] | increase in planktonic growth ([4]; 100 μM, OD600): ~15%; planktonic growth inhibition at 200 μM ([4]; 200 μM): did not inhibit planktonic growth; inhibition of growth at 100 µM ([4]; 100 μM): -18 ± 4%; MIC [3, 11]: 3.13 µM; inhibition at 100 µM [5]: 49 ± 6%; Phenotype [6]: antibacterial; IC50 [6]: 930 nM; MIC/IC50 Biofilm [6]: 3.4
